Patent US8487111B2, “Substituted oxazolidinones and their use” (Bayer Intellectual Property GmbH, priority 2007, dated 2013)

Experiments:
factor Xa = factor Xa (Homo sapiens (Human), UniProt P00742); experiment: Determination of the factor Xa-inhibitory activity in plasma samples (RVV-activated factor X, chromogenic substrate); format: biochemical; settings: factor Xa inhibition in citrate plasma (Octapharma), RVV-stimulated, ChromozymX substrate
Method: a.4) Determination of the Factor Xa-Inhibitory Activity of the Potential Inhibitors in Plasma Samples
To determine the inhibition of factor Xa in plasma samples, the factor X present in plasma is activated by a protease from rattlesnake toxin. The factor Xa activity or its inhibition by potential inhibitors is then measured by addition of a chromogenic substrate.
Various concentrations of the substances to be tested are dissolved in dimethyl sulphoxide and mixed with an aqueous refludan solution (10 μg/ml). In clear 96-well plates having a flat bottom, 30 μl of citrate plasma (Octapharma) are mixed with 10 μl of the substance dilution. Then, either 20 μl of a solution of a rattlesnake toxin (Russel viper venom (RVV); RVV reagent: Pentapharm 121-06, final concentration 0.6 mU) in an aqueous calcium chloride solution buffer (final concentration of calcium chloride 0.05 M) or 20 μl of the aqueous calcium chloride solution (final concentration of calcium chloride 0.05 M) without RVV reagent (as reference for an unstimulated sample) are added. After addition of 20 μl of ChromozymX substrate (final concentration 1.6 mmol/l, Bachem L-1565, diluted in water) the samples are measured in a SpectraFluor Reader using a measurement filter of 405 nm each minute over a period of 20 minutes. The IC50 value is determined when about 70% of the maximum signal is reached (about 12 min).

thrombin = thrombin (Homo sapiens (Human), UniProt P00734); experiment: Determination of the thrombin-inhibitory activity in plasma samples (ecarin, fluorogenic thrombin substrate); format: biochemical; settings: thrombin inhibition in citrate plasma (Octapharma), ecarin-stimulated
Method: a.5) Determination of the Thrombin-Inhibitory Activity of the Potential Inhibitors in Plasma Samples
Various concentrations of the substances to be tested are dissolved in dimethyl sulphoxide and diluted with water. In white 96-well plates having a flat bottom, 20 μl of substance dilution are mixed with 20 μl of ecarin solution (ecarin reagent, from Sigma E-0504, final concentration 20 mU per batch) in Ca buffer (200 mM Hepes+560 mM sodium chloride+10 mM calcium chloride+0.4% PEG) or with 20 μl of Ca buffer (as unstimulated control). Furthermore, 20 μl of fluorogenic thrombin substrate (from Bachem I-1120, final concentration 50 μmol/l) and 20 μl of citrate plasma (from Octapharma) are added and homogenized thoroughly. The plate is measured in a SpectraFluorplus Reader using an excitation filter of 360 nm and an emission filter of 465 nm each minute over a period of 20 minutes. The IC50 value is determined when about 70% of the maximum signal is reached (about 12 min).

factor Xa, sequence (P00742 whole entry, looked up): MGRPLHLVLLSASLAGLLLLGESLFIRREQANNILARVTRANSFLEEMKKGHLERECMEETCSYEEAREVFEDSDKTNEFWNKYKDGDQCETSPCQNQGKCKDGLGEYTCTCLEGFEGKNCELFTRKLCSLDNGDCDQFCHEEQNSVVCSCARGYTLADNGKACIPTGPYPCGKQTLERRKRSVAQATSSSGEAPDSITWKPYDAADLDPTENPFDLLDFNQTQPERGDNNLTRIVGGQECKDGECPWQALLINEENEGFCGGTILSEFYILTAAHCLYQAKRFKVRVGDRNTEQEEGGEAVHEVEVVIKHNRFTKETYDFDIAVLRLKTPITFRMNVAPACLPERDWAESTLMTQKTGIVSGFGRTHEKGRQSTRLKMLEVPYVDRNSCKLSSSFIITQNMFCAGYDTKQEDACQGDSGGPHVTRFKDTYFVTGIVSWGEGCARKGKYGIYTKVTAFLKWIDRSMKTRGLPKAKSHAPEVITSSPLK
factor Xa, sequence (P00742 whole entry, looked up): as above

Structure (SMILES)	IC50 (factor Xa)	IC50 (thrombin)
Cc1cc(N2C[C@H](CNC(=O)c3ccc(Cl)s3)OC2=O)ccc1-n1cccc(CCCO)c1=O [Example 10, 5-Chloro-N-{[(5S)-3-{4-[3-(3-hydroxypropyl)-2-oxopyridin-1(2H)-yl]-3-methylphenyl}-2-oxo-1,3-oxazolidin-5-yl]methyl}thiophene-2-carboxamide]	40 nM	74 nM
COCc1cc(N2C[C@H](CNC(=O)c3ccc(Cl)s3)OC2=O)ccc1-n1cccc(CCO)c1=O [Example 8]	167 nM	16 nM
Cc1cc(N2C[C@H](CNC(=O)c3ccc(Cl)s3)OC2=O)ccc1-n1cccc(CCO)c1=O [Example 6, 5-Chloro-N-[((5S)-3-{4-[3-(2-hydroxyethyl)-2-oxopyridin-1(2H)-yl]-3-methylphenyl}-2-oxo-1,3-oxazolidin-5-yl)methyl]thiophene-2-carboxamide]	70 nM	186 nM
Cc1cc(N2C[C@H](CNC(=O)c3ccc(Cl)s3)OC2=O)ccc1-n1cccc(CO)c1=O [Example 2, 5-Chloro-N-[((5S)-3-{4-[3-(hydroxymethyl)-2-oxopyridin-1(2H)-yl]-3-methylphenyl}-2-oxo-1,3-oxazolidin-5-yl)methyl]thiophene-2-carboxamide]	21 nM	198 nM
